Experimental data from patent US10047151B2, “Methods for the treatment of cancer and inflammatory diseases using cereblon as a predictor” (Celgene Corporation, priority 2011, dated 2018).

How the values were obtained:
[1] = test system: CARD11-BCL-10-MALT1 (CBM) complex; experiment: MALT1-induced BCL-10 cleavage (CBM complex activity) in ABC-DLBCL cells; format: cell-based; details: OCI-Ly3 cells
Experimental: (§1) Cells were treated with test compounds or 0.1% DMSO for indicated times. Following incubation, cells were collected, pelleted with centrifugation, and immediately lysed in 0.1 ml lysis buffer containing 10 mM Tris-HCl pH 8.0, 10 mM EDTA, 150 mM NaCl, 1% NP-40, 0.5% SDS, 1 mM DTT, 1 mM Na3VO4, plus Complete protease inhibitor cocktail (Roche Applied Science, Indianapolis, Ind.), then processed with a Qiashredder™ (Qiagen, Valencia, Calif.) for 1 minute and frozen on dry ice. Samples were diluted with 6×SDS sample buffer and then boiled for 5 min. Approximately 30 μl of this mixture was loaded per lane on a Criterion Precast 4-12% Tris-HCl gel (Bio-Rad, Hercules, Calif.), electrophoresed, and transferred to nitrocellulose membranes (Bio-Rad, Hercules, Calif.). The membranes were blocked for 1 hour at room temperature using blocking buffer (LI-COR Biosciences, Lincoln, Nebr.), then incubated overnight at 4° C. with antibodies against either BCL-10, IRF4, CRBN or β-actin. Membranes were washed and incubated with IRDye Secondary Antibodies (1:30,000) for 1 hour at room temperature. A standard protocol was then followed for signal detection, using the Odyssey® Infrared Imaging System and software (LI-COR Biosciences, Lincoln, Nebr.).
This mutation has been reported to cause constitutive formation and activation of CARD11-BCL-10-MALT1 (CBM) complex of BCR signaling pathway, leading to NF-κB overactivation in lymphoma cells. See Lenz, G., et al., Science 2008, 319: 1676-9; Thome, M. et al., Cold Spring Harb Perspect Biol. 2010; 2: a003004. To investigate the potential involvement of CBM complex in lenalidomide-induced IRF4 inhibition in these cells, the effect of lenalidomide on the complex activity was examined by measuring MALT1 paracaspase enzymatic activity. MALT1 is activated upon association with BCL-10 and CARD11 to form active CBM complex and then cleaves its binding partners, such as BCL-10.

IRF4 [2] = experiment: IRF4 protein expression in ABC-DLBCL cells (Western blot); format: cell-based; details: OCI-Ly3 cells; 1-3 day treatments
Experimental: as §1
To understand the molecular mechanism of lenalidomide on ABC-DLBCL cells, the effects of lenalidomide on IRF4 expression in these cells were investigated. […] Lenalidomide-induced decrease of IRF4 expression occurred as early as 1 day of drug treatment, with similar kinetics to that of the inhibitors (zVRPR-fmk and LY-333,531, respectively) of MALT1 and PKCβ, two key enzymes involved in NF-κB activation upon BCR engagement in B cells.

Jurkat IL-2 = Jurkat IL-2 induction by Compound A; format: cell-based
TNF = TNF inhibition by Compound A; format: cell-based
H929 cells = experiment: Cell cycle progression (cells in S phase) in siRNA-transfected H929 cells; format: cell-based; details: 72 h treatment
Experimental: The effect of CRBN in H929 cells was also evaluated. H929 cells were transfected with mock, negative control siRNA and CRBN-siRNA-7 for 24, 48, 72 and 96 h. Cells were treated 24 h after transfection with DMSO (0.1%), pomalidomide (1 μM), lenalidomide (10 μM) or 3-(5-amino-2-methyl-4-oxo-4H-quinazolin-3-yl)-piperidine-2,6-dione (“Compound B”) for 1, 2, 3 days and the effect on cell cycle and proliferation investigated. Lenalidomide, pomalidomide and Compound B induced a delay of cell cycle progression, measured as the decrease of the number of cells in S phase, in control mock and negative control siRNA-transfected cells after 72 h treatment (FIG. 2C). Knockdown of CRBN markedly abrogated immunomodulatory drugs-induced delay in cell cycle progression in H929 cells (FIG. 2C) from of 50 to 4% for lenalidomide, from 70 to 15% for pomalidomide, and from 65 to 22% for Compound B.

IRF4 [3] = experiment: IRF4 protein level in H929 cells (Western blot); format: cell-based
Description: In H929 cells, the cell cycle arrest in G1 phase by the drugs coincides with a reduction of tumor suppressor, pRb, phosphorylation and the oncogene and myeloma survival factor IRF4.

pRb = pRb phosphorylation in H929 cells (Western blot); format: cell-based
U266B1 cells [4] = experiment: Cell cycle progression (cells in S phase) in siRNA-transfected U266B1 cells; format: cell-based; details: control mock and negative control siRNA-transfected cells; average of 3 days of treatment; pomalidomide 1 μM, lenalidomide 10 μM
Experimental: Drugs such as lenalidomide and pomalidomide have direct anti-proliferative activity against MM cells by inducing cell cycle arrest in G1 phase, followed by a decrease in viability. To study the role of CRBN in lenalidomide and other drugs anti-proliferative activities, H929 and U266B1 cells, two sensitive myeloma lines, were transfected with CRBN-siRNAs or control siRNAs for 24, 48, 72 and 96 hours. Cells were treated 24 h after transfection with DMSO (0.1%), pomalidomide (1 μM) and lenalidomide (10 μM) for 1, 2, 3 days to evaluated the compound effect on CRBN protein, mRNA expression and the effect on cell cycle and proliferation. […] CRBN down regulation was confirmed by RT-PCR and Western blot using the CRBN70 antibody (FIG. 1).
Knockdown of CRBN markedly abrogated the lenalidomide and pomalidomide-induced delay in cell cycle progression in U266B1 cells. Id.

CRBN [5] = experiment: CRBN mRNA and protein expression after drug treatment (RT-PCR, Western blot); format: cell-based; details: H929 and U266B1 cells; pomalidomide 1 μM, lenalidomide 10 μM
U266B1 cells [6] = experiment: Gene expression profile by microarray in U266B1 cells; format: cell-based; details: negative control siRNA-transfected U266B1 cells; pomalidomide 1 μM, lenalidomide 10 μM; ±1.7 fold, P<0.05
Experimental: Gene expression profile using microarray technology identified 759 or 609 genes differentially modulated in negative control siRNA-transfected U266B1 cells treated with pomalidomide (1 μM) or lenalidomide (10 μM) compared to DMSO treated control (±1.7 fold; P<0.05 ANOVA p-value) (FIGS. 5A & 5B).

U266 = experiment: Ubiscan ubiquitinated peptide quantification in U266; format: cell-based
Description: The effects of lenalidomide and pomalidomide on protein ubiquination were investigated using CST Ubiscan technology. Treated samples were sent to Cell Signaling Technology for ubiquinated peptide enrichment and quantification by LC/MS/MS. […] In the MG132 combo, more ubiquinated peptides are observed (compared with their controls). […] These peptides correspond to 176 unique proteins. Top few groups are: nucleosome, chromatin, protein-DNA complex assembly, Histone H2A. Among the 176 proteins, we found five proteins that belong to “ubiquitin-protein ligase activity” category, they are MDM2, HERC2, UBE2D3 (only by pomalidomide), UBE2N (lenalidomide only), UBE2M (both). Results for hits categorized by conditions are shown in FIGS. 8 & 9 (without MG132) and FIGS. 10 & 11 (with MG132).

p21^WAF-1 = experiment: p21WAF-1 mRNA and protein levels in U266B1 cells; format: cell-based; details: U266B1, control mock and negative control siRNA-transfected cells; pomalidomide 1 μM, lenalidomide 10 μM
Experimental: To further investigate the effects of CRBN on the cell cycle arrest induced by drugs we used RT-PCR and Western blot analysis to measure the levels of key cell cycle and apoptotic regulators. U266B1 cells were transfected with mock, negative control siRNA, CRBN-siRNA-7 and CRBN-siRNA-11 for 24, 48, 72 and 96 h (FIG. 3A). Cells were treated 24 h after transfection with DMSO (0.1%), pomalidomide (1 μM) and lenalidomide (10 μM) for 1, 2, 3 days and the effect on mRNA and protein levels of the cyclin-dependent kinase (CDK) inhibitor p21^WAF-1 were evaluated. It has been shown that lenalidomide- and pomalidomide-induced cell cycle arrest is dependent on up-regulation of p21^WAF-1 in […]. […] However, knockdown of CRBN prevents the induction of p21^WAF-1 indicating the successful abrogation of G1 arrest and renewal of S phase progression (FIGS. 3C & 3D).

poly-ubiquitin chains = experiment: Global polyubiquitination by immunofluorescence in H929 cells; format: cell-based; details: 1 μM, 30 minutes
Experimental: Specific antibodies for poly-ubiquitin chains were used to study the effect of immunomodulatory drugs on global levels of ubiquitination. H929 cells were treated with lenalidomide (1 μM), pomalidomide (1 μM) or proteasome inhibitor MG132. After 30 minutes cells were process for immunofluorescence. Global levels of K63-linked polyubiquitination were quantified by Cellomics.

CRBN [7] = target: T1, CRBN (Homo sapiens, UniProt Q96SW2); experiment: Binding of compounds to CRBN
T1 sequence (Q96SW2 whole entry): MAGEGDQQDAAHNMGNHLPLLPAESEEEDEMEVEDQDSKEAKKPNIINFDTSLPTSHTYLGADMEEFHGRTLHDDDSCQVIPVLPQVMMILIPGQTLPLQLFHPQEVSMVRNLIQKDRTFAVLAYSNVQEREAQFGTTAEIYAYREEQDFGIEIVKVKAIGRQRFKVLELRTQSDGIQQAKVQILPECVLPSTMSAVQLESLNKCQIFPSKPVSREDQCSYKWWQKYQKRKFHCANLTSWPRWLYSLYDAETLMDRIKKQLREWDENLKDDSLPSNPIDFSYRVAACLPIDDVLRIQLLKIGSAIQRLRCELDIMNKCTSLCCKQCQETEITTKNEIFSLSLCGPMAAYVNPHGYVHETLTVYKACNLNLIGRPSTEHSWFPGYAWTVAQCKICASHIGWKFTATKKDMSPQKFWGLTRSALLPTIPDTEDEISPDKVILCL

T cells = experiment: Ubiscan ubiquitinated peptide quantification in T cells; format: cell-based
Description: The effects of lenalidomide and pomalidomide on protein ubiquination were investigated using CST Ubiscan technology. Treated samples were sent to Cell Signaling Technology for ubiquinated peptide enrichment and quantification by LC/MS/MS.

CRBN [8] = target: T1, CRBN; experiment: Denaturing immunoblot with CGN-6-4-5; format: binding; parameters: endogenous in cells; host or cells: DF15 myeloma cells (endogenous); HEK293 cells expressing recombinant flag-tagged CRBN on the same blot
Experimental: CGN-6-4-5 was diluted 1:10,000 dilution in 0.1% Tween PBS buffer. An exemplary immunoblot with myeloma cells containing endogenous CRBN (DF15), DF15R with no CRBN and HEK293 cells expressing recombinant flag-tagged CRBN is shown in FIG. 38. Peptide neutralization was performed by combining antibody with a five-fold (by weight) excess of blocking peptide in 500 μl PBS and incubating with constant rotation at room temperature for 2 hours.

[9] = H929 cells with knockdown of CRBN
[10] = control mock and negative control siRNA-transfected H929 cells

Molecule: CN(C)C[C@@H]1CCn2cc(c3ccccc32)C2=C(C(=O)NC2=O)c2cn(c3ccccc23)CCO1 [PKCβ inhibitor, LY-333,531]
- BCL-10 cleavage [1]: neither the PKCβ inhibitor nor lenalidomide had any effect
- IRF4 levels (IRF4 [2]): neither lenalidomide nor the PKCβ inhibitor had any appreciable effect

Molecule: Cl.NCCC(=O)NCc1cccc2c1C(=O)N(C1CCC(=O)NC1=O)C2=O (stereo not drawn) [Compound A]
- Jurkat IL-2 EC200 (Jurkat IL-2): 3.47 µM
- IC50 (TNF): 622 nM

Molecule: zVRPR-fmk [MALT1 inhibitor]
- IRF4 levels (IRF4 [2]): complete inhibition

Molecule: Nc1cccc2c1C(=O)N(C1CCC(=O)NC1=O)C2=O (stereo not drawn) [pomalidomide, 4-amino-2-(2,6-dioxopiperidin-3-yl)-1H-isoindole-1,3-dione]
- delay in cell cycle progression (decrease of the number of cells in S phase) (H929 cells; [9]): 15%
- delay in cell cycle progression (decrease of the number of cells in S phase) (H929 cells; [10]): 70%
- total level of protein IRF4 (IRF4 [3]): decreased
- phosphorylation of pRB (pRb): decreased
- delay of cell cycle progression, measured as the decrease of the number of cells in S phase (U266B1 cells [4]): 50%
- mRNA and protein expression of CRBN (CRBN [5]): affected neither mRNA nor protein expression of CRBN significantly
- genes differentially modulated compared to DMSO treated control (U266B1 cells [6]): 759 genes
- Ub-proteins increased in abundance (U266): IKZF3, RPL19, PCM1 and NEDD8
- proteins decreased in abundance (U266): GNB2L1 and HNRNPR
- p21 level (p21^WAF-1): up-regulated
- K-63-linked ubiquitination (poly-ubiquitin chains): but not K-63-linked ubiquitination
- total K48-linked polyubiquitination (poly-ubiquitin chains): decrease

Molecule: O=C1NC(=O)c2ccccc21 [pthalimide]
- binding to CRBN (CRBN [7]): did not

Molecule: C[C@]1(N2C(=O)c3cccc(N)c3C2=O)CCC(=O)NC1=O [S-methyl-pomalidomide]
- affinity for CRBN (enantiomers compared) (CRBN [7]): greater affinity for CRBN than R-methyl-pomalidomide

Molecule: Cc1nc2cccc(N)c2c(=O)n1C1CCC(=O)NC1=O (stereo not drawn) [Compound B, 3-(5-amino-2-methyl-4-oxo-4H-quinazolin-3-yl)-piperidine-2,6-dione]
- delay in cell cycle progression (decrease of the number of cells in S phase) (H929 cells; [9]): 22%
- delay in cell cycle progression (decrease of the number of cells in S phase) (H929 cells; [10]): 65%
- total level of protein IRF4 (IRF4 [3]): decreased
- phosphorylation of pRB (pRb): decreased
- Ub-proteins increased in abundance (T cells): IKZF3, RPL19, PCM1 and NEDD8
- proteins decreased in abundance (T cells): GNB2L1 and HNRNPR
- ubiquinated peptides of greater abundance vs. DMSO control (T cells): SECTM1 and ZC3H15

B1: CGN-6-4-5: rabbit monoclonal anti-CRBN antibody, heavy chain SEQ ID NO:9, light chain SEQ ID NO:11 (antibody)
heavy: METGLRWLLLVAVLKGVQCQSVEESGGRLVTPGTPLTLTCTVSGFSLSRYGVSWVRQAPGKGLEHIGYIYSDPGMTFYATWAKGRFTISKTSSTTVDLKMTSPTIEDTATYFCARGTPLASYSTWGPGTLVTISLGQPKAPSVFPLAPCCGDTPSSTVTLGCLVKGYLPEPVTVTWNSGTLTNGVRTFPSVRQSSGLYSLSSVVSVTSSSQPVTCNVAHPATNTKVDKTVAPSTCSKPTCPPPELLGGPSVFIFPPKPKDTLMISRTPEVTCVVVDVSQDDPEVQFTWYINNEQVRTARPPLREQQFNSTIRVVSTLPIAHQDWLRGKEFKCKVHNKALPAPIEKTISKARGQPLEPKVYTMGPPREELSSRSVSLTCMINGFYPSDISVEWEKNGKAEDNYKTTPAVLDSDGSYFLYSKLSVPTSEWQRGDVFTCSVMHEALHNHYTQKSISRSPGK
light: MDTRAPTQLLGLLLLWLPGATFAQVLTQTPASVSAAVGGTVTINCQSSENIYKNNYLSWFQQKPGQPPKLLIYQASTLASGVPSRFKGSGSGTRFSLTISDLECDDAATYYCAGGYSGNIFTFGGGTEVVVKGDPVAPTVLIFPPAADQVATGTVTIVCVANKYFPDVTVTWEVDGTTQTTGIENSKTPQNSADCTYNLSSTLTLTSTQYNSHKEYTCKVTQGTTSVVQSFNRGDC
- recognition of CRBN on denaturing immunoblots (CRBN [8]): specifically recognizes the full-length 51 kDa human CRBN protein
